In brackets after ≈: the same amount, converted by molar mass.
How the values were obtained:
[1] = test system: arthritis of rats caused by erysipeloid (strain T 28); assay: Erysipeloid arthritis of rats, evaluation of aorta thrombes; type: in vivo, Male wistar rats; settings: 5 mg/kg i.p., 5 times per week from infection day; comparison group 2.80
Excerpt: When comparing arthritis based on experimental erysipeloid of for example rats with human rheumatic arthritis an extensive correspondence of the morphological changes can be observed. The tests had been made according to the publication of Schulz et al. Beitr. Path. 154, 1-26, 27-51 (1975). The arthritis of rats caused by erysipeloid can be reproduced with nearly 100 percent effectiveness with a single injection. In case of arthritis caused by erysipeloid always more than 6 joints of the limbs are transformed, namely big and small joints of the limbs in the same manner.
In the test of the compounds the following parameters of the manifestation phase had been used for estimating the activity of the compound.
With rats fibrine-rich thrombes occur about 6th to 11th day of the intima of the aorta. The largest space covered is about 8th day.
Male wistar rats with a body weight of 150 to 180 g were used for the tests. The animals had been kept in single cages and got a rat standard diet (Ssniff R) and water ad libitum.
The infection was carried out with the erysipeloid strain T 28. The dosage was 2 ml s.c. (about 100-200 millions germs). The compounds to be tested had been suspended in sterile saline solution and had been injected i.p. in a dosage of 5 mg/kg body weight. The treatment was 5 times per week from infection day to end of test or death of animal.

[2] = Toxicity on administration over a long period of time; type: in vivo, rate, mice rabbits, dogs and primates; settings: daily doses of 100 to 200 mg/kg of body weight over a long period of time
[3] = Acute toxicity by oral administration; type: in vivo, rate, mice rabbits, dogs and primates; settings: doses of 1 to 2 grams/kg of body weight
physchem = type: physicochemical; settings: water
Excerpt: According to the described process there can also be produced solutions of other sterol disaccharides. […] This solubility is above the preferred individual doses employed of the compounds.

Row | SMILES | evaluation of aorta thrombes (value) [1] | tolerance [2] | acute toxicity [3] | solubility (physchem) [µg/mL]
1 | C[C@@H]1CC[C@@]2(OC1)O[C@H]1C[C@H]3[C@@H]4CC=C5C[C@@H](O[C@@H]6O[C@H](CO)[C@@H](O)[C@H](O)[C@H]6O)CC[C@]5(C)[C@H]4CC[C@]3(C)[C@H]1[C@@H]2C [diosgeninglucoside, diosgenin-3-β-D-Glucoside] | 1.33 | – | – | –
2 | C[C@@H]1CC[C@@]2(OC1)O[C@H]1C[C@H]3[C@@H]4CC[C@H]5C[C@@H](O[C@@H]6O[C@H](CO)[C@@H](O)[C@H](O)[C@H]6O)CC[C@]5(C)[C@H]4CC(=O)[C@]3(C)[C@H]1[C@@H]2C [hecogeninglucoside, hecogenin β-D-glucoside] | 1.38 | – | – | –
3 | CC[C@H](CC[C@@H](C)[C@H]1CC[C@H]2[C@@H]3CC=C4C[C@@H](O[C@@H]5O[C@H](CO)[C@@H](O)[C@H](O)[C@H]5O)CC[C@]4(C)[C@H]3CC[C@]12C)C(C)C [sitosterol-β-D-glucoside, Sitosterol-β-D-Glucoside] | 2.00 | good | no toxic effects | –
4 | CC[C@H](CC[C@@H](C)[C@H]1CC[C@H]2[C@@H]3CC=C4C[C@@H](O[C@@H]5O[C@H](CO)[C@@H](O[C@@H]6O[C@H](CO)[C@@H](O)[C@H](O)[C@H]6O)[C@H](O)[C@H]5O)CC[C@]4(C)[C@H]3CC[C@]12C)C(C)C [β-D-cellobioside of sitosterol] | – | – | – | 750 (≈ 1010 µM)
5 | CC[C@H](CC[C@@H](C)[C@H]1CC[C@H]2[C@@H]3CC=C4C[C@@H](O[C@@H]5O[C@H](CO)[C@@H](O[C@@H]6O[C@H](CO)[C@H](O)[C@H](O)[C@H]6O)[C@H](O)[C@H]5O)CC[C@]4(C)[C@H]3CC[C@]12C)C(C)C [β-D-lactoside of sitosterol] | – | – | – | 210 (≈ 284 µM)
